Data as given in the supplement of paper PMC10307832.

Assays:
Experiment in all cases: relative viability (nuclei count vs DMSO), 5 days (fraction); higher = more cells survive
AZ628 + Navitoclax = compound: CC1=C(C=C(C=C1)NC(=O)C2=CC(=CC=C2)C(C)(C)C#N)NC3=CC4=C(C=C3)N=CN(C4=O)C [AZ628] + CC1(C)CCC(c2ccc(Cl)cc2)=C(CN2CCN(c3ccc(C(=O)NS(=O)(=O)c4ccc(N[C@H](CCN5CCOCC5)CSc5ccccc5)c(S(=O)(=O)C(F)(F)F)c4)cc3)CC2)C1 [Navitoclax] (partner 0.5 µM)
In short: (§1)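 Relative viability is defined as nuclei in treated wells over nuclei in vehicle wells. Duplicate plates were run and medians reported. Lung cancer cell lines in 1536-well plates were dosed by pin tool one day after seeding, with one drug or with a fixed anchor-drug dose plus five library-drug doses (not always all listed) in √10 steps, and nuclei were counted after 5 days.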

AZ628 + Palbociclib = compound: CC1=C(C=C(C=C1)NC(=O)C2=CC(=CC=C2)C(C)(C)C#N)NC3=CC4=C(C=C3)N=CN(C4=O)C [AZ628] + CC(=O)c1c(C)c2cnc(Nc3ccc(N4CCNCC4)cn3)nc2n(C2CCCC2)c1=O [Palbociclib] (partner 0.5 µM)
In short: as §1

QS11 + Dasatinib = compound: C1CC2=C(C1)C=C(C=C2)OC3=NC(=C4C(=N3)N(C=N4)CC5=CC=C(C=C5)C6=CC=CC=C6)N[C@@H](CC7=CC=CC=C7)CO [QS11] + Cc1nc(Nc2ncc(C(=O)Nc3c(C)cccc3Cl)s2)cc(N2CCN(CCO)CC2)n1 [Dasatinib] (partner 0.075 µM)
In short: as §1

AZ628 + Pemetrexed = compound: CC1=C(C=C(C=C1)NC(=O)C2=CC(=CC=C2)C(C)(C)C#N)NC3=CC4=C(C=C3)N=CN(C4=O)C [AZ628] + Nc1nc2[nH]cc(CCc3ccc(C(=O)N[C@@H](CCC(=O)O)C(=O)O)cc3)c2c(=O)[nH]1 [Pemetrexed] (partner 0.2 µM)
In short: as §1

| Cell Line | relative viability (AZ628 + Navitoclax; first compound 0.08 µM) | relative viability (AZ628 + Navitoclax; first compound 0.253 µM) | relative viability (AZ628 + Navitoclax; first compound 0.8 µM) | relative viability (AZ628 + Navitoclax; first compound 2.53 µM) | relative viability (AZ628 + Navitoclax; first compound 8 µM) | relative viability (AZ628 + Palbociclib; first compound 0.08 µM) | relative viability (AZ628 + Palbociclib; first compound 0.253 µM) | relative viability (AZ628 + Palbociclib; first compound 0.8 µM) | relative viability (AZ628 + Palbociclib; first compound 2.53 µM) | relative viability (AZ628 + Palbociclib; first compound 8 µM) | relative viability (QS11 + Dasatinib; first compound 0.08 µM) | relative viability (QS11 + Dasatinib; first compound 0.253 µM) | relative viability (QS11 + Dasatinib; first compound 0.8 µM) | relative viability (QS11 + Dasatinib; first compound 2.53 µM) | relative viability (QS11 + Dasatinib; first compound 8 µM) | relative viability (AZ628 + Pemetrexed; first compound 0.08 µM) | relative viability (AZ628 + Pemetrexed; first compound 0.253 µM) | relative viability (AZ628 + Pemetrexed; first compound 0.8 µM) | relative viability (AZ628 + Pemetrexed; first compound 2.53 µM) | relative viability (AZ628 + Pemetrexed; first compound 8 µM) |
| --- | --- | --- | --- | --- | --- | --- | --- | --- | --- | --- | --- | --- | --- | --- | --- | --- | --- | --- | --- | --- |
| EBC-1 | 0.349 | 0.427 | 0.325 | 0.326 | 0.224 |  |  |  |  |  |  |  |  |  |  |  |  |  |  |  |
| EKVX | 0.982 | 0.925 | 1.11 | 0.966 | 0.589 | 0.393 | 0.374 | 0.478 | 0.452 | 0.3 | 0.529 | 0.503 | 0.512 | 0.505 | 0.589 | 0.419 | 0.422 | 0.338 | 0.407 | 0.312 |
| EMC-BAC-2 | 1.26 | 1.09 | 1.07 | 1.06 | 1.05 | 0.521 | 0.55 | 0.535 | 0.519 | 0.554 | 0.341 | 0.337 | 0.376 | 0.285 | 0.269 | 0.481 | 0.494 | 0.476 | 0.516 | 0.589 |
| EPLC-272H | 1.02 | 1.04 | 1.24 | 1.1 | 0.709 | 0.32 | 0.345 | 0.292 | 0.317 | 0.25 |  | 0.394 | 0.35 | 0.257 | 0.333 | 0.229 | 0.309 | 0.265 | 0.293 | 0.248 |
| H3255 | 0.496 | 0.503 | 0.558 | 0.489 | 0.227 | 0.284 | 0.297 | 0.309 | 0.326 | 0.328 | 0.319 | 0.394 |  | 0.369 | 0.402 | 0.563 | 0.486 | 0.597 | 0.537 | 0.504 |
| HARA | 1.2 | 1.12 | 1.13 | 1.14 | 0.591 | 0.216 | 0.3 | 0.223 | 0.275 | 0.222 | 0.294 | 0.281 |  | 0.221 | 0.307 | 0.255 | 0.221 | 0.226 | 0.231 | 0.193 |
| HCC-15 | 0.676 | 0.619 | 0.54 | 0.474 | 0.312 | 0.708 | 0.718 | 0.656 | 0.677 | 0.421 | 0.649 | 0.611 | 0.532 | 0.73 | 0.49 | 0.231 | 0.204 | 0.211 | 0.226 | 0.206 |
| HCC-44 | 0.966 | 1 | 0.996 | 1.06 | 0.874 | 1.01 | 0.942 | 0.96 | 0.958 | 1.15 |  |  |  |  |  | 0.629 | 0.682 | 0.643 | 0.706 | 0.679 |
| HCC-78 | 0.902 | 0.782 | 0.85 | 0.746 | 0.92 | 0.478 | 0.454 | 0.516 | 0.53 | 0.449 | 0.432 | 0.395 | 0.491 | 0.558 | 0.67 | 0.95 | 0.905 | 0.892 | 0.89 | 0.915 |
